The record followed here is patent US9328112B2, “Tetracyclic CDK9 kinase inhibitors” (AbbVie Inc., priority 2014, dated 2016).

Structures are written as SMILES. Where a name gives a salt, the structure may show the parent alone.

One test deals with CDK9/Cyclin T1 (Homo sapiens (Human), UniProt P50750). In words: CDK9 enzyme assay (LANCE ULight TR-FRET kinase assay). In kind it is biochemical. Particulars: 1000 μM ATP, 100 nM ULight MBP, kinase reaction 1 hour. On the procedure:
CDK9 enzyme activities were measured using LANCE ULight TR-FRET kinase assay reagents (PerkinElmer, Waltham, Mass.). Compounds were diluted in 100% DMSO then diluted with 1:10 in serine/threonine kinase assay buffer containing 20 mM HEPES, 10 mM MgCl2, […], and 0.0075% Triton X-100. Equal volume of the compound dilutions was added to a final reaction mixture containing LANCE detection buffer (PerkinElmer CR97-100), 100 nM ULight MBP (PerkinElmer TRF0109M), 1000 μM ATP, and CDK9/Cyclin T1 (Carna Biosciences 04-110). The kinase reaction was carried out for 1 hour before addition of stopping buffer to a final of 20 mM EDTA and 0.5 nM of LANCE Ultra Europium anti-phospho-MBP antibody (PerkinElmer TRF0201M) in LANCE detection buffer. The reaction was incubated for 1 hour and the signal was read in Envision in TR-FRET mode (excitation at 320 nm and emission at 615/665 nm).
(In general: Time-resolved FRET reads energy transfer from a long-lived donor to a nearby acceptor.)

Another test deals with H929 cells. In words: Cell viability assay (Cell TiterGlo). It counts as cell-based. Particulars: Homo sapiens, NCI-H929, 24 hours at 37° C., Cell TiterGlo luminescence. On the procedure:
The cell viability assay was performed using H929 cells. Cells were seeded in 96-well plates at 10,000 cells/well and, after overnight incubation, treated with compounds in a dose response of 3-fold dilutions from 10 μM to 0.005 μM ([…], 0.1% final DMSO concentration). After 24 hours at 37° C., cell viability was measured using Cell TiterGlo reagent (Promega) with a luminescence reader.

Sequence of CDK9/Cyclin T1 (P50750 whole entry): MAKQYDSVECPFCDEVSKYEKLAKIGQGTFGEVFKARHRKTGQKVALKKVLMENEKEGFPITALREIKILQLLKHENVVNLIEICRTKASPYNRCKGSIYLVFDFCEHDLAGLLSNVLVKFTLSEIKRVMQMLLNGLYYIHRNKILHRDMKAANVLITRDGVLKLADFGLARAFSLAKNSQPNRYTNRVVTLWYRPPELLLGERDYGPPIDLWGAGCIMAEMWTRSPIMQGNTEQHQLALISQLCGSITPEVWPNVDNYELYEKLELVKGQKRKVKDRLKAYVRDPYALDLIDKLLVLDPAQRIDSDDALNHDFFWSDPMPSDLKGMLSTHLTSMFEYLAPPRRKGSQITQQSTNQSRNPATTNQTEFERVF
Sequence of CDK9/Cyclin T1 (O60563 whole entry partner): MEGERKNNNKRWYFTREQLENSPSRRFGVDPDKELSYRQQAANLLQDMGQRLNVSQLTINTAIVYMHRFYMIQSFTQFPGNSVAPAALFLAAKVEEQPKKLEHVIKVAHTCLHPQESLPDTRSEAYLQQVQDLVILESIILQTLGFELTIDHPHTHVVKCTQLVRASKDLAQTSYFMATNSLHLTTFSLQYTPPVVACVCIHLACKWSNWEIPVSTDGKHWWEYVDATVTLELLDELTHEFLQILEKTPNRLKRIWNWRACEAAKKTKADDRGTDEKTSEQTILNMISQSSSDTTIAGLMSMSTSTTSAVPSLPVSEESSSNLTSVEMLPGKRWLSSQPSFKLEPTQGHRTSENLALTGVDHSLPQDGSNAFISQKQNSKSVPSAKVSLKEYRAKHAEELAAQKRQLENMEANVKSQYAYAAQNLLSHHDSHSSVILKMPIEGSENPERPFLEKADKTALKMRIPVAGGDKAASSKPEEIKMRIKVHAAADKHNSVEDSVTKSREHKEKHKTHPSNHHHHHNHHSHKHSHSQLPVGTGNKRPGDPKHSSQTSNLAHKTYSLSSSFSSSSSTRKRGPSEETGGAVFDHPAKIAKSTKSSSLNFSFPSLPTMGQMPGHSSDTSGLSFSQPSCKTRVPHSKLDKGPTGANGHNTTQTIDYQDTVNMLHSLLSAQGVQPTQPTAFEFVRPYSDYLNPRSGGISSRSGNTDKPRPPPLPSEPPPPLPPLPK

Turning to `CN1Cc2c(C3=CCN(CC(=O)O)CC3)[nH]c3nccc(c23)-c2cc(F)ccc21` [Example 16, [4-(10-fluoro-7-methyl-6,7-dihydro-4H-3,4,7-triazadibenzo[cd,f]azulen-5-yl)-3,6-dihydropyridin-1(2H)-yl]acetic acid dihydrochloride], the IC50 at CDK9/Cyclin T1 is 0.061 µM; in the test with H929 cells, 0.22 µM.
For the molecule `CN1Cc2c(C3=CCN(CC(=O)N4CCC[C@H]4CO)CC3)[nH]c3nccc(c23)-c2cc(F)ccc21` [Example 17, 2-[4-(10-fluoro-7-methyl-6,7-dihydro-4H-3,4,7-triazadibenzo[cd,f]azulen-5-yl)-3,6-dihydropyridin-1(2H)-yl]-1-[(2S)-2-(hydroxymethyl)pyrrolidin-1-yl]ethanone], the IC50 against CDK9/Cyclin T1 was 0.07 µM; in the test with H929 cells, 0.009 µM.
In the same order, the values of `CN1Cc2c(C3=CCN(CC(=O)N4CC(O)C4)CC3)[nH]c3nccc(c23)-c2cc(F)ccc21` [Example 18, 2-[4-(10-fluoro-7-methyl-6,7-dihydro-4H-3,4,7-triazadibenzo[cd,f]azulen-5-yl)-3,6-dihydropyridin-1(2H)-yl]-1-(3-hydroxyazetidin-1-yl)ethanone] are 0.044 µM and 0.16 µM.
With `CN(CCO)C(=O)CN1CC=C(c2[nH]c3nccc4c3c2CN(C)c2ccc(F)cc2-4)CC1` [Example 19, 2-[4-(10-fluoro-7-methyl-6,7-dihydro-4H-3,4,7-triazadibenzo[cd,f]azulen-5-yl)-3,6-dihydropyridin-1(2H)-yl]-N-(2-hydroxyethyl)-N-methylacetamide], the IC50 came to 0.048 µM at CDK9/Cyclin T1 and 0.008 µM with H929 cells.
Regarding `CC1c2c(C3=CCN(S(C)(=O)=O)CC3)[nH]c3nccc(c23)-c2cc(F)ccc2N1C` (stereo not drawn) [Example 20, 10-fluoro-6,7-dimethyl-5-[1-(methylsulfonyl)-1,2,3,6-tetrahydropyridin-4-yl]-6,7-dihydro-4H-3,4,7-triazadibenzo[cd,f]azulene], the values for the concentration for half-maximal inhibition (IC50) against CDK9/Cyclin T1 and in the test on H929 cells were 0.11 µM and 0.047 µM, respectively.
Regarding `CN1Cc2c(C3CCNCC3)[nH]c3nccc(c23)-c2cc(F)ccc21` [Example 21, 10-fluoro-7-methyl-5-(piperidin-4-yl)-6,7-dihydro-4H-3,4,7-triazadibenzo[cd,f]azulene], the IC50 on CDK9/Cyclin T1 was 0.4 µM; with H929 cells it was 0.46 µM.
As for `CN1Cc2c(C3=CCN(CC(=O)N(C)C4CC(O)C4)CC3)[nH]c3nccc(c23)-c2cc(F)ccc21` (stereo not drawn) [Example 24, 2-[4-(10-fluoro-7-methyl-6,7-dihydro-4H-3,4,7-triazadibenzo[cd,f]azulen-5-yl)-3,6-dihydropyridin-1(2H)-yl]-N-(3-hydroxycyclobutyl)-N-methylacetamide], the half-maximal inhibitory concentration (IC50) was found to be 0.04 µM against CDK9/Cyclin T1 and 0.027 µM with H929 cells.
Turning to `CNS(=O)(=O)CC(=O)N1CC=C(c2[nH]c3nccc4c3c2CN(C)c2ccc(F)cc2-4)CC1` [Example 25, 2-[4-(10-fluoro-7-methyl-6,7-dihydro-4H-3,4,7-triazadibenzo[cd,f]azulen-5-yl)-3,6-dihydropyridin-1(2H)-yl]-N-methyl-2-oxoethanesulfonamide], the half-inhibitory concentration (IC50) at CDK9/Cyclin T1 was 0.022 µM; with H929 cells, 0.065 µM.
In the same order, the values of `CN1Cc2c(C3CCN(CC(=O)N4CCC[C@H]4CO)CC3)[nH]c3nccc(c23)-c2cc(F)ccc21` [Example 26, 2-[4-(10-fluoro-7-methyl-6,7-dihydro-4H-3,4,7-triazadibenzo[cd, f]azulen-5-yl)piperidin-1-yl]-1-[(2S)-2-(hydroxymethyl)pyrrolidin-1-yl]ethanone] are 0.093 µM and 0.15 µM.
For `CN(CCO)C(=O)CN1CCC(c2[nH]c3nccc4c3c2CN(C)c2ccc(F)cc2-4)CC1` [Example 27, 2-[4-(10-fluoro-7-methyl-6,7-dihydro-4H-3,4,7-triazadibenzo[cd,f]azulen-5-yl)piperidin-1-yl]-N-(2-hydroxyethyl)-N-methylacetamide], the results for the IC50 on CDK9/Cyclin T1 and with H929 cells were 0.091 µM and 0.21 µM, respectively.
Regarding `CCOC(=O)C1c2c(C3=CCNCC3)[nH]c3nccc(c23)-c2cc(F)ccc2N1C` (stereo not drawn) [Example 28, ethyl 10-fluoro-7-methyl-5-(1,2,3,6-tetrahydropyridin-4-yl)-6,7-dihydro-4H-3,4,7-triazadibenzo[cd,f]azulene-6-carboxylate], the IC50 worked out at 0.15 µM at CDK9/Cyclin T1 and 0.025 µM in the test on H929 cells.
The matching figures for `CC(C)[C@@H](NC1CC=C(c2[nH]c3nccc4c3c2CN(C)c2ccc(F)cc2-4)CC1)C(=O)O` (stereo partly drawn) [Example 29, N-[4-(10-fluoro-7-methyl-6,7-dihydro-4H-3,4,7-triazadibenzo[cd,f]azulen-5-yl)cyclohex-3-en-1-yl]-D-valine]: 0.046 µM and 0.094 µM.
Consider `C[C@H](NC1CC=C(c2[nH]c3nccc4c3c2CN(C)c2ccc(F)cc2-4)CC1)C(=O)O` (stereo partly drawn) [Example 30, N-[4-(10-fluoro-7-methyl-6,7-dihydro-4H-3,4,7-triazadibenzo[cd,f]azulen-5-yl)cyclohex-3-en-1-yl]-L-alanine], for which the IC50 at CDK9/Cyclin T1 and in the test on H929 cells was 0.1 µM in each case.
Turning to `CN1Cc2c(C3=CCC(NCC(=O)O)CC3)[nH]c3nccc(c23)-c2cc(F)ccc21` (stereo not drawn) [Example 31, N-[4-(10-fluoro-7-methyl-6,7-dihydro-4H-3,4,7-triazadibenzo[cd,f]azulen-5-yl)cyclohex-3-en-1-yl]glycine], the IC50 at CDK9/Cyclin T1 was determined as 0.086 µM; with H929 cells it was 0.07 µM.
Consider `CN1Cc2c(C3=CCC(N[C@H](C(=O)O)c4ccccc4)CC3)[nH]c3nccc(c23)-c2cc(F)ccc21` (stereo partly drawn) [Example 32, (2S)-{[4-(10-fluoro-7-methyl-6,7-dihydro-4H-3,4,7-triazadibenzo[cd,f]azulen-5-yl)cyclohex-3-en-1-yl]amino}(phenyl)acetic acid], for which the results for the IC50 on CDK9/Cyclin T1 and in the test on H929 cells were 0.056 µM and 0.17 µM, respectively.
Regarding `CN1c2ccc(F)cc2-c2ccnc3[nH]c(C4=CCNCC4)c(c23)C1C(=O)O` (stereo not drawn) [Example 33, 10-fluoro-7-methyl-5-(1,2,3,6-tetrahydropyridin-4-yl)-6,7-dihydro-4H-3,4,7-triazadibenzo[cd,f]azulene-6-carboxylic acid], the IC50 is 0.54 µM on CDK9/Cyclin T1 and 0.15 µM in the test on H929 cells.
In the same order, the values of `CC(C)[C@H](NC1CC=C(c2[nH]c3nccc4c3c2CN(C)c2ccc(F)cc2-4)CC1)C(=O)O` (stereo partly drawn) [Example 34, N-[4-(10-fluoro-7-methyl-6,7-dihydro-4H-3,4,7-triazadibenzo[cd,f]azulen-5-yl)cyclohex-3-en-1-yl]-L-valine] are 0.12 µM and 0.092 µM.
`CN1Cc2c(C3=CCC(N[C@@H](Cc4ccccc4)C(=O)O)CC3)[nH]c3nccc(c23)-c2cc(F)ccc21` (stereo partly drawn) [Example 35, N-[4-(10-fluoro-7-methyl-6,7-dihydro-4H-3,4,7-triazadibenzo[cd,f]azulen-5-yl)cyclohex-3-en-1-yl]-L-phenylalanine]: the 50% inhibitory concentration (IC50) at CDK9/Cyclin T1 was 0.061 µM; in the test with H929 cells, 0.091 µM.
Regarding `CN1Cc2c(C3=CCC(N[C@H](C(=O)O)C(C)(C)C)CC3)[nH]c3nccc(c23)-c2cc(F)ccc21` (stereo partly drawn) [Example 36, N-[4-(10-fluoro-7-methyl-6,7-dihydro-4H-3,4,7-triazadibenzo[cd,f]azulen-5-yl)cyclohex-3-en-1-yl]-3-methyl-L-valine], the 50% inhibitory concentration (IC50) against CDK9/Cyclin T1 worked out at 0.064 µM; with H929 cells, 0.025 µM.
Consider `CN1Cc2c(C3=CCC(N4CCC[C@H]4C(=O)O)CC3)[nH]c3nccc(c23)-c2cc(F)ccc21` (stereo partly drawn) [Example 37, 1-[4-(10-fluoro-7-methyl-6,7-dihydro-4H-3,4,7-triazadibenzo[cd,f]azulen-5-yl)cyclohex-3-en-1-yl]-L-proline], for which the figures for the concentration for half-maximal inhibition (IC50) on CDK9/Cyclin T1 and in the test on H929 cells were 0.16 µM and 0.29 µM, respectively.
In the case of `CN1Cc2c(C3=CCC(N[C@@H](CO)C(=O)O)CC3)[nH]c3nccc(c23)-c2cc(F)ccc21` (stereo partly drawn) [Example 38, N-[4-(10-fluoro-7-methyl-6,7-dihydro-4H-3,4,7-triazadibenzo[cd,f]azulen-5-yl)cyclohex-3-en-1-yl]-L-serine], the IC50 was determined as 0.091 µM against CDK9/Cyclin T1 and 0.27 µM with H929 cells.
For `CCC[C@H](NC1CC=C(c2[nH]c3nccc4c3c2CN(C)c2ccc(F)cc2-4)CC1)C(=O)O` (stereo partly drawn) [Example 39, N-[4-(10-fluoro-7-methyl-6,7-dihydro-4H-3,4,7-triazadibenzo[cd,f]azulen-5-yl)cyclohex-3-en-1-yl]-L-norvaline], the IC50 on CDK9/Cyclin T1 is 0.13 µM; with H929 cells, 0.099 µM.
In the case of `CN1Cc2c(C3=CCC(N[C@@H](Cc4ccc(O)cc4)C(=O)O)CC3)[nH]c3nccc(c23)-c2cc(F)ccc21` (stereo partly drawn) [Example 40, N-[4-(10-fluoro-7-methyl-6,7-dihydro-4H-3,4,7-triazadibenzo[cd,f]azulen-5-yl)cyclohex-3-en-1-yl]-L-tyrosine], the figures for the IC50 on CDK9/Cyclin T1 and with H929 cells were 0.081 µM and 0.32 µM, respectively.
In the case of `CN1Cc2c(C3=CCC(C(=O)O)CC3)[nH]c3nccc(c23)-c2cc(F)ccc21` (stereo not drawn) [Example 41, 4-(10-fluoro-7-methyl-6,7-dihydro-4H-3,4,7-triazadibenzo[cd,f]azulen-5-yl)cyclohex-3-ene-1-carboxylic acid], the concentration for half-maximal inhibition (IC50) against CDK9/Cyclin T1 was 0.15 µM; in the test on H929 cells, 1.1 µM.

One may read the IC50 as the concentration that inhibits the measured activity by half. Read a high IC50 as a need for much substance.
